In article PMC8169650, “Identification of Small Molecule Inhibitors of a Mir155 Transcriptional Reporter in Th17 Cells” (Scientific Reports, 2021):
pEC50: −log10 of the molar value.

Legend:
Mir155 reporter = Mir155 reporter Beta-Glo HTS assay (β-gal activity); type: cell-based, mouse; conditions: for pEC50: Mus musculus, β-gal signal, 48 h, read-out: EC50, inhibition of Mir155 reporter expression; for pEC50 / effect on Mir155 reporter expression: Th17 cells from Mir155 reporter mice; for effect on Mir155 reporter expression: dose response
Experimental: To develop an assay for the HTS screen, CD4^+ T cells were purified from spleen and lymph nodes of the Mir155 reporter mice. The purified CD4^+ T cells were cultured under Th17 cell-polarizing conditions in twelve well plates following which differentiated Th17 cells were transferred and expanded in six well plates followed by a resting period of 2 days in T cell media (schema depicted in Fig. 1a). We first optimized the cell number to maximize the assay window. To this end, differentiated Th17 cells were plated at different cell densities in the wells of polystyrene 1536-well plates under Th17 polarizing conditions. T cell activation was accomplished using two protocols. In the first protocol, magnetic beads coupled to anti-CD3 and anti-CD28 antibodies (CD3/CD28 microbeads) were added to mediate T cell activation as induction of MiR155 expression requires engagement of the TCR CD3 complex (signal 1) plus the co-stimulatory molecule CD28 (signal 2). The cells along with the beads were incubated at 37 °C, 5% CO2 for 48 h and, subsequently, high-throughput quantitation of β-gal activity was performed after 30 min of incubation using the Beta-Glo Assay system (Fig. 1b).
The NPC collection was screened at seven concentrations (top concentration 46 µM; 1:5 dilution thereafter) and drug response curves for the compounds were generated using our qHTS curve class classification algorithm as described above.
CD4^+ cells were purified from spleens and lymph nodes of Mir155 reporter mice as described above. Briefly, single cell suspensions were prepared by mechanical disruption followed by lysis of red blood cells with 0.83% ammonium chloride. CD4^+ T cells were either isolated by FACS sorting (BD FACS Aria) or were positively selected using magnetic CD4 microbeads (Miltenyi Biotec)[43]. 1 million CD4^+ cells/well were cultured in anti-CD3/CD28 (1 µg/ml each) coated 12 well plates under Th17 polarization conditions following which differentiated Th17 cells were transferred and expanded in six well plates followed by a resting period of 2 days in T cell media. A cocktail containing 10 ng/ml each of IL-6, IL-1 β, IL-21 and TGF-β (0.5 ng/ml) and IFNγ, IL-4, IL-12 neutralizing antibodies (10 μg/ml) was used for the Th17 polarizing conditions. For the HTS assay, 2000 differentiated Th17 cells/well in Th17 polarizing media were added to Greiner-one high base solid bottom white tissue culture treated 1536 well plates (catalog # 789173-F) using a small cassette and a Multidrop Combi dispenser (Thermo Fisher Scientific Inc.,Waltham, MA). Compounds were added using a Kalypsys pintool (Columns 5–48) and magnetic beads coupled to anti-CD3 and anti-CD28 (CD3/CD28 microbeads) were added to mediate T cell activation. CD3/CD28 microbeads were not added to first 2 columns and those wells served as basal control. DMSO was added to columns 3 and 4 and served as 100% signal. The plates were incubated for 48 h at 37 °C, 5% CO2, 95% humidity covered with low evaporation stainless steel lids from Kalypsys. After 48 h of incubation, 5 µl of Beta-Glo reagent (Beta Glo Assay System, Promega) was added using a Bioraptor Flying Reagent Dispenser (Aurora Discovery-BD) and the plates were incubated at room temperature for 30 min. Luminescence signal was captured using a 10 s exposure with a ViewLux (Perkin Elmer) containing a luminescent filter. Beta Glo reagent consists of Beta Glo substrate and buffer that are combined to form the Beta Glo reagent (Beta Glo Assay System, Promega).

[1] = test system: IL-17 production in Th17 cells; assay: Intracellular IL-17 flow cytometric cytokine assay under Th17 polarization; type: cell-based, mouse; conditions: for IL-17+ cells, gated on live CD4+CD44high cells / inhibition at 20 µM: 20 µM; for IL-17+ cells, gated on live CD4+CD44high cells: DMSO 32% (panel b), 36.8% (panel c); for inhibition at 20 µM: Mus musculus, 96 h, day 4, C57BL/6 CD4+ T cells, read-out: down-regulation (inhibition) of IL-17 production compared to control
Experimental: (§1) It has been previously shown that IL-17 production is defective in miR-155 deficient cells. […] To test the hit compounds for IL-17 downregulation, we purified naive CD4^+ T cells from C57BL/6 mice and cultured them under Th17 polarization condition. Small molecules at multiple concentrations (20 µM, 10 µM and 5 µM) were added 18 h post-plating of CD4^+ T cells on anti-CD3/CD28 coated plates and again on day 2 of culture (schema depicted in Fig. 3a).
(§2) Spleens and lymph nodes were harvested from mice and single cell suspensions were prepared by mechanical disruption followed by lysis of red blood cells with 0.83% ammonium chloride. CD4^+ T cells were either isolated by FACS sorting (BD FACS Aria) or were positively selected using magnetic CD4 microbeads (Miltenyi Biotec). For intracellular IL-17 quantitation by flow cytometry, 0.25 million cells/ well were plated in anti-CD3/CD28 (1 µg/ml) coated 48 well plates. A cocktail containing 10 ng/ml each of IL-6, IL-1 β, IL-21 and TGF-β (0.5 ng/ml) and IFNγ, IL-4, IL-12 neutralizing antibodies (10 μg/ml) was used for the Th17 polarizing conditions. All recombinant cytokines were purchased from R&D Systems and crosslinking antibodies were purified from hybridomas (Harlan). Cells were treated with small molecules at indicated concentrations at 18 h and 48 h of cell plating. On day 4 of the culture, cells were stimulated with 20 ng/ml of phorbol 12-myristate 13-acetate (PMA) and ionomycin (1 μg/ml) for 4 h in the presence of brefeldin A. Following stimulation, cells were stained with fixable viability dye (eBioscience) and surface stained for CD44 and CD4, permeabilized using cytofix/cytoperm (BD biosciences) and subsequently, stained for intracellular IL-17. Foxp3/Transcription Factor Staining kit (eBioscience) kit was used for intranuclear staining of RORγt. Samples were acquired on BD Fortessa and analyzed using Flowjo (Tree star Inc).

Th17 cells = assay: RNA-seq of CD4+ T cells under Th17 polarizing conditions; type: cell-based, mouse; conditions: 20 µM, 24 h, vs DMSO
Source text: The (E)-1-(phenylsulfonyl)-2-styryl-1H-benzo[d] imidazoles were identified from the diversity library and the target for these compounds is not known. We investigated the possible molecular mechanism(s) regulating impaired Th17 cell function using whole-transcriptome RNA-sequencing (RNA-seq) of CD4^+ T cells treated with NCGC00108246 or NCGC00108250 (representative imidazole compounds) under Th17 polarizing conditions. We performed differential gene expression to compare the two imidazole-treated conditions (n = 6) to DMSO (n = 3). Imidazole treated samples (NCGC00108246 or NCGC00108250) had similar gene expression profiles and clustered together, and distinct from DMSO. […] We confirmed down-regulation of IL-17 cytokines (IL-17a and IL-17f.) in NCGC00108246 or NCGC00108250 treated cells (Fig. 4a,b). […] In alignment with the protein data, transcript levels for Th17 cell-specific transcription factor RORγt encoded by Rorc gene were not affected after treatment with imidazoles (Fig. S2b,c).
For RNA seq, T cells were treated with compounds for 24 h in Th17 polarizing conditions, following which RNA was extracted using the mirVana kit (Applied Biosystems). Qubit RNA broad range assay in the Qubit Flurometer (Invitrogen) was used to measure RNA concentration, following which RNA integrity was determined with Eukaryote Total RNA Nano Series II ChIP on a 2100 Bioanalyzer (Agilent). TruSeq RNA sample preparation kit (Illumina) was used to prepare RNA-seq libraries. Briefly, oligo-dT purified mRNA was fragmented and subjected to first and second strand cDNA synthesis. cDNA fragments were blunt ended, ligated to Illumina adaptors and PCR amplified to enrich for the fragments ligated to adaptors. The resulting cDNA libraries were verified and quantified on Agilent Bioanalyzer and single-end 96 cycle sequencing was conducted (Illumina) as previously described.
For data analysis, RNA-seq reads were aligned to the mm10 genome and the GRCm38 v87 transcriptome with STAR v2.5.2a[44] using default parameters and output tracks normalized by RPM (–outWigNorm RPM). RSEM v1.3[45] was used to calculate gene counts and TPMs on the transcriptome-aligned reads as previously described[16],[43]. Differential expression analysis was performed in R v3.5.2, using DESeq2[46] v1.22.2, resulting in 2328 differentially expressed genes when contrasting NCGC00108246 or NCGC00108250 treated samples versus DMSO controls. […] The volcano plot was generated with the R package (R-project.org at https://www.R-project.org/), Enhanced Volcano. Heatmaps were generated with the R package, pheatmap. Integrative Genomics Viewer v2.4.19[48] was used for visualization of normalized bigwig tracks.

CD4+ T cells = assay: Viability dye and CD44 activation staining in the IL-17 flow cytometric assay; type: cell-based; conditions: Fig. S2a
Experimental: as §1, §2

[2] = fresh batch compared to older batch

Structure (SMILES)	pEC50 (Mir155 reporter)	IL-17+ cells, gated on live CD4+CD44high cells [1]	inhibition at 20 µM [1]	effect on Mir155 reporter expression (Mir155 reporter)	further results
CC(=O)N1CCN(c2ccc(OCC3COC(Cn4ccnc4)(c4ccc(Cl)cc4Cl)O3)cc2)CC1 (stereo not shown) [ketoconazole, reference compound]				either modest down-regulators or did not affect Mir155 reporter expression	
c1ccc(-c2ccc(C(c3ccccc3)n3ccnc3)cc2)cc1 (stereo not shown) [bifonazole, reference compound]				either modest down-regulators or did not affect Mir155 reporter expression	
OC(Cn1cncn1)(Cn1cncn1)c1ccc(F)cc1F [fluconazole, reference compound]				either modest down-regulators or did not affect Mir155 reporter expression	
Clc1cccc(C(c2ccc3[nH]cnc3c2)n2ccnc2)c1 (stereo not shown) [liarozole, reference compound]				either modest down-regulators or did not affect Mir155 reporter expression	

The next lines start with results.

pEC50 (Mir155 reporter)	Structure (SMILES)	IL-17+ cells, gated on live CD4+CD44high cells [1]	inhibition at 20 µM [1]	effect on Mir155 reporter expression (Mir155 reporter)	further results
5.46	CCOc1ccc(/C=C/c2nc3ccccc3n2S(=O)(=O)c2cccc(Cl)c2)cc1 [NCGC00108246]	3.1%	90%		IL-17a and IL-17f transcripts (Th17 cells): down-regulation; IL-22 and IL-23r transcripts (Th17 cells): down-regulated
5.70	CSc1ccc(/C=C/c2nc3ccccc3n2S(=O)(=O)c2cccc(Cl)c2)cc1 [NCGC00108250]	4.4%	88%		IL-17 / RORγt plot, percent cells, gated on live CD4+CD44high ([1]; Fig. S2b, DMSO 32.4% / 21.2%): 3.2%; IL-17a and IL-17f transcripts (Th17 cells): down-regulation; IL-22 and IL-23r transcripts (Th17 cells): down-regulated; live cells (fixable viability dye, Live-dead) (CD4+ T cells; DMSO 77.4% / 80.6%): 80.5%; CD4+ CD44+ cells (CD4+ T cells; DMSO 97.2% / 98.2%): 96.1%
4.90	CCOc1ccc(/C=C/c2nc3ccccc3n2S(=O)(=O)c2ccc(Br)cc2)cc1 [NCGC00108244]	30.4%	17%		
5.66	CSc1ccc(/C=C/c2nc3ccccc3n2S(=O)(=O)c2ccc(Br)cc2)cc1 [NCGC00108248, (E)-1-((4-bromophenyl)sulfonyl)-2-(4-(methylthio)styryl)-1H-benzo[d] imidazole]	3.8%	90%		activity in miR-155 HTS assay, solutions of fresh powders (Mir155 reporter; [2]): inactive or demonstrated attenuated activity; inhibition of IL-17, solutions of fresh powders [1, 2]: not potent inhibitors of IL-17
5.43	Cc1ccc(/C=C/c2nc3ccccc3n2S(=O)(=O)c2ccc(Br)cc2)cc1 [NCGC00140607]	16.6%	55%		
5.92	CSc1ccc(/C=C/c2nc3ccccc3[nH]2)cc1 [NCGC00507974, (E)-2-(4-(methylthio)styryl)-1H-benzo[d] imidazole]			dose dependent reduction of Mir155 reporter expression	effect on IL-17 production ([1]; C57BL/6 CD4+ T cells, Th17 polarization): dose-dependent inhibition of IL-17 production
6.22	Cc1ccc(/C=C/c2nc3ccccc3n2S(=O)(=O)c2cccc(Cl)c2)cc1 [NCGC00140605]	13.1%	65%		
